Source: PubChem BioAssay (NCI)
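Cells were grown in 96-well plates and exposed to each compound for 48 hours at five concentrations; endpoints were interpolated linearly between bracketing concentrations, or set to the highest concentration if not reached. TGI: total growth inhibition.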

Experiments:
Test in all cases: DTP human tumour cell line panel, 48 h
HCT-15 colon = tested on: HCT-15 colon
HL-60(TB) leukemia = tested on: HL-60(TB) leukemia
CCRF-CEM leukemia = tested on: CCRF-CEM leukemia
SNB-75 CNS = tested on: SNB-75 CNS
SN12C renal = tested on: SN12C renal
ACHN renal = tested on: ACHN renal
HT29 colon = tested on: HT29 colon
SF-539 CNS = tested on: SF-539 CNS
TK-10 renal = tested on: TK-10 renal
OVCAR-5 ovarian = tested on: OVCAR-5 ovarian
CAKI-1 renal = tested on: CAKI-1 renal
LOX IMVI melanoma = tested on: LOX IMVI melanoma
U251 CNS = tested on: U251 CNS
OVCAR-8 ovarian = tested on: OVCAR-8 ovarian
HCC-2998 colon = tested on: HCC-2998 colon
IGROV1 ovarian = tested on: IGROV1 ovarian
UACC-257 melanoma = tested on: UACC-257 melanoma
HOP-92 NSCLC = tested on: HOP-92 NSCLC
SR leukemia = tested on: SR leukemia

Row | Structure (SMILES) | TGI (HCT-15 colon) [µM] | TGI (HL-60(TB) leukemia) [µM] | TGI (CCRF-CEM leukemia) [µM] | TGI (SNB-75 CNS) [µM] | TGI (SN12C renal) [µM] | TGI (ACHN renal) [µM] | TGI (HT29 colon) [µM] | TGI (SF-539 CNS) [µM] | TGI (TK-10 renal) [µM] | TGI (OVCAR-5 ovarian) [µM] | TGI (CAKI-1 renal) [µM] | TGI (LOX IMVI melanoma) [µM] | TGI (U251 CNS) [µM] | TGI (OVCAR-8 ovarian) [µM] | TGI (HCC-2998 colon) [µM] | TGI (IGROV1 ovarian) [µM] | TGI (UACC-257 melanoma) [µM] | TGI (HOP-92 NSCLC) [µM] | TGI (SR leukemia) [µM]
1 | CCO/C(O)=C(/C(=N)N1CCCC1)C(=O)Nc1ccc(F)cc1 | > 100 | > 100 | > 100 | > 100 | > 100 | > 100 | > 100 | > 100 | > 100 | > 100 | > 100 | > 100 | > 100 | > 100 | > 100 | > 100 | > 100 | – | –
2 | CC1(C)CCC[C@]2(C)[C@@H]1CC[C@@]13O[C@@H]1C1=C(CO)C(=O)OC1=C[C@@H]23 | 63.7 | – | – | 88.4 | 25.9 | > 100 | 29.6 | – | 55.5 | 23.2 | 34.2 | – | 67.4 | – | 46.7 | 29.4 | 71.2 | 37 | –
3 | CC(=O)c1sc(Nc2ccc(Cl)c(Cl)c2)nc1C | > 100 | – | – | > 100 | > 100 | > 100 | > 100 | > 100 | > 100 | > 100 | > 100 | > 100 | > 100 | > 100 | > 100 | > 100 | > 100 | – | > 100
4 | CN(NC(=O)/C(=C\c1ccco1)NC(=O)c1ccccc1)c1cn[nH]c(=O)c1Cl | > 100 | – | 62.4 | 84.2 | > 100 | > 100 | > 100 | 62 | > 100 | > 100 | > 100 | 58.2 | > 100 | > 100 | – | > 100 | > 100 | > 100 | > 100
5 | CC(C)(CC#N)c1cc(CC(C)(C)c2cc(CC(C)(C)c3cc(C(C)(C)C4(C)OCCO4)no3)no2)no1 | > 100 | – | > 100 | 43.5 | > 100 | > 100 | > 100 | – | > 100 | > 100 | 87.2 | – | > 100 | > 100 | > 100 | > 100 | > 100 | – | –
6 | O=C1CCCCC(=O)Nc2ccccc2N1 | > 100 | > 100 | > 100 | – | > 100 | > 100 | > 100 | > 100 | > 100 | > 100 | > 100 | > 100 | > 100 | > 100 | – | > 100 | > 100 | > 100 | > 100
7 | CCCC(=O)Oc1ccc2c(C)cc(=O)oc2c1OC(=O)CCC | > 100 | – | > 100 | > 100 | > 100 | > 100 | > 100 | > 100 | > 100 | > 100 | – | > 100 | > 100 | > 100 | – | > 100 | > 100 | 99.6 | > 100
8 | Cc1n[nH]c(=O)n1/N=C/c1ccncc1 | > 100 | – | > 100 | > 100 | > 100 | > 100 | > 100 | > 100 | > 100 | > 100 | > 100 | > 100 | > 100 | > 100 | > 100 | > 100 | > 100 | > 100 | –
9 | CC(=O)OC1CC[C@@]2(C)C(C1)CC(OC(C)=O)[C@@H]1C2CC(OC(C)=O)[C@]2(C)C(C(C)CC=C(c3ccc(Cl)cc3)c3ccc(Cl)cc3)CCC12 (stereo partly specified) | > 100 | 27.9 | 95.2 | > 100 | > 100 | > 100 | > 100 | > 100 | > 100 | > 100 | – | – | > 100 | > 100 | > 100 | > 100 | > 100 | – | > 100
10 | O=C1CC(c2ccc(Cl)cc2)C2(C(=O)NC(=O)NC2=O)C(c2ccc(Cl)cc2)C1 (stereo unspecified) | > 75 | > 75 | > 75 | > 75 | 54 | > 75 | > 75 | > 75 | > 75 | > 75 | > 75 | > 75 | > 75 | > 75 | > 75 | 51.3 | > 75 | 54.9 | –
11 | CC1(C)CCCOc2cccc(c2)OCCCC(C)(C)C1=O | > 100 | > 100 | 44.2 | > 100 | > 100 | > 100 | 43.2 | > 100 | > 100 | > 100 | > 100 | > 100 | > 100 | – | – | > 100 | – | 99.1 | > 100
12 | Cn1c2ccccc2c2nc3ccccc3c(Cl)c21 | > 100 | > 100 | > 100 | > 100 | > 100 | – | > 100 | > 100 | > 100 | > 100 | > 100 | > 100 | > 100 | > 100 | – | > 100 | > 100 | – | > 100
13 | CN(C)CCc1ccnc2nc(-c3ccc4ccccc4c3)cn12 | > 100 | > 100 | > 100 | – | 75.9 | > 100 | 38.9 | – | 40.7 | > 100 | > 100 | 65 | > 100 | 92.7 | 37.2 | 81.8 | > 100 | – | > 100
14 | Cn1c(=O)cc(NCCc2ccccc2)[nH]c1=O | > 100 | – | > 100 | > 100 | > 100 | > 100 | 78.1 | > 100 | > 100 | > 100 | > 100 | > 100 | > 100 | > 100 | > 100 | > 100 | > 100 | > 100 | –
